These results are taken from ChEMBL document CHEMBL1131713, “Substituted piperidines--highly potent renin inhibitors due to induced fit adaptation of the active site” (Bioorg Med Chem Lett, 1999).

The source made the active and inactive calls. The rule behind the calls is not given here.

Pepsin A (Sus scrofa), sequence (P00791 60-385 limits assumed): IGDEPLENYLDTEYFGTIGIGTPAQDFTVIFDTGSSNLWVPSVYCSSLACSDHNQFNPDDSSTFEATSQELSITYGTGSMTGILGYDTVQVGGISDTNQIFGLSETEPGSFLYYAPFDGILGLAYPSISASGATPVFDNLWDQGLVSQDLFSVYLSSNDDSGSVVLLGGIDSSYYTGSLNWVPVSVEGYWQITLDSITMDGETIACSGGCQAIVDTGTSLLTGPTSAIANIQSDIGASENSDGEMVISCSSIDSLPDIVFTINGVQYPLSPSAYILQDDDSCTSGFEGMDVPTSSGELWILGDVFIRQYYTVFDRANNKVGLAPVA

The first experiment has as its target T1, Cathepsin D (Bos taurus) (UniProt P80209).
T1 sequence (whole entry): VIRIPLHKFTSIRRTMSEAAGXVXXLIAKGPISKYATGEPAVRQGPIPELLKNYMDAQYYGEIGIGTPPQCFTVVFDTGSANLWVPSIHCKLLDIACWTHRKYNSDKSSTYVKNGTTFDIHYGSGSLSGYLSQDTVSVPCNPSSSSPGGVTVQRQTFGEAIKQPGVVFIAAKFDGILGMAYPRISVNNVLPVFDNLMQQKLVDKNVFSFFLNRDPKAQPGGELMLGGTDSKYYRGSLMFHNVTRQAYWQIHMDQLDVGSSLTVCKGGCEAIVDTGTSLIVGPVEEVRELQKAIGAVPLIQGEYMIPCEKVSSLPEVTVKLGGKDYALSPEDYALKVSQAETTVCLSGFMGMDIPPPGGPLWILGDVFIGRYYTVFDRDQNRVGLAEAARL
The experiment can be described thus: Inhibition against bovine cathepsin D; NA means no activity.
Take `COc1ccc(COC2CNCCC2c2ccc(Cl)cc2)cc1` (racemic): the result was inactive.

The target of another experiment is Human immunodeficiency virus type 1 protease (Human immunodeficiency virus 1) (UniProt Q72874). Description: Inhibition against HIV protease; NA means no activity.
With `COc1ccc(COC2CNCCC2c2ccc(Cl)cc2)cc1` (racemic), the outcome was inactive.

Another experiment has as its target Pepsin A (Sus scrofa) (UniProt P00791). Description: Inhibition against porcine pepsin; NA means no activity.
As for `COc1ccc(COC2CNCCC2c2ccc(Cl)cc2)cc1` (racemic), the outcome was inactive.

A further experiment deals with T2, Renin (Homo sapiens, UniProt P00797).
T2 sequence (P00797 whole entry): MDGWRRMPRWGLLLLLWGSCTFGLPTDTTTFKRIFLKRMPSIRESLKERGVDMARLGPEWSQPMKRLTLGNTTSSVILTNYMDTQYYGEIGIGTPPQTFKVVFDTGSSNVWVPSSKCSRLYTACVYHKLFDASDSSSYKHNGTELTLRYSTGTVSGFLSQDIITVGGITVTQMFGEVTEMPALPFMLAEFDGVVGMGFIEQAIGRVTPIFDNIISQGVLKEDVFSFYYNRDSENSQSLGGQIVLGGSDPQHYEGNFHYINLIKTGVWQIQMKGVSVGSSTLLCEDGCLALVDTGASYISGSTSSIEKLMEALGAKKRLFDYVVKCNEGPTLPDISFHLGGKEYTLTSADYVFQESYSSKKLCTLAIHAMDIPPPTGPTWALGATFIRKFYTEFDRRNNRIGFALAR
Description: In vitro inhibitory activity against purified recombinant human renin.
In the case of `COc1ccccc1COCCCOc1ccc([C@H]2CCNC[C@@H]2OCc2ccc3ccccc3c2)cc1` (racemic), the IC50 was determined as 0.0015 µM.
Take `c1ccc(CCOCCOc2ccc([C@H]3CCNC[C@@H]3OCc3ccc4ccccc4c3)cc2)cc1` (racemic): the 50% inhibitory concentration (IC50) came to 0.16 µM.
As to `c1ccc(OCCOCc2ccc([C@H]3CCNC[C@@H]3OCc3ccc4ccccc4c3)cc2)cc1` (racemic), the IC50 worked out at 0.16 µM.
Consider `CC(C)(C)S(=O)(=O)C[C@@H](Cc1ccccc1)C(=O)N[C@@H](Cc1cnc[nH]1)C(=O)N[C@@H](CC1CCCCC1)[C@@H](O)[C@@H](O)C1CC1` [REMIKIREN], for which the IC50 was determined as 2.5e-05 µM.
The same measure, in the same setting: the figure for `c1ccc(COCCCCOc2ccc([C@H]3CCNC[C@@H]3OCc3ccc4ccccc4c3)cc2)cc1` (racemic) is 0.1 µM; for `O=C(NCCOc1ccc([C@H]2CCNC[C@@H]2OCc2ccc3ccccc3c2)cc1)c1ccccc1` (racemic) it is 2.6 µM.
The same measure, in the same setting: then `COc1ccc(CO[C@H]2CNCC[C@@H]2c2ccc(Cl)cc2)cc1`, with 26 µM; and `O=C(OCCOc1ccc([C@H]2CCNC[C@@H]2OCc2ccc3ccccc3c2)cc1)c1cccnc1` (racemic), with 0.58 µM.
The same measure, in the same setting: then `COc1ccc(COC2CNCCC2c2ccc(Cl)cc2)cc1` (racemic), with 50 µM; and `c1ccc(-c2noc(COc3ccc([C@H]4CCNC[C@@H]4OCc4ccc5ccccc5c4)cc3)n2)cc1` (racemic), with 0.041 µM.
Consider `c1ccc(COCCOc2ccc([C@H]3CCNC[C@@H]3OCc3ccc4ccccc4c3)cc2)cc1` (racemic), for which the IC50 was determined as 0.053 µM.
Still for that read-out and setting: then `c1ccc(OCCCCOc2ccc([C@H]3CCNC[C@@H]3OCc3ccc4ccccc4c3)cc2)cc1` (racemic), with 0.22 µM; and `c1ccc(COCCCOCc2ccc([C@H]3CCNC[C@@H]3OCc3ccc4ccccc4c3)cc2)cc1` (racemic), with 0.74 µM.
On the same count and under the same terms, the figure for `O=C(OCCOc1ccc([C@H]2CCNC[C@@H]2OCc2ccc3ccccc3c2)cc1)c1ccccc1` (racemic) is 0.026 µM.
Same read-out and setting: then `c1ccc(OCCCOCc2ccc([C@H]3CCNC[C@@H]3OCc3ccc4ccccc4c3)cc2)cc1` (racemic), with 0.54 µM.
For `COc1ccc(C(=O)NCc2ccc([C@H]3CCNC[C@@H]3OCc3ccc4ccccc4c3)cc2)cc1` (racemic), the 50% inhibitory concentration (IC50) is over 1000 µM.
Still for that read-out and setting: the figure for `COc1ccc(CO[C@@H]2CNCC[C@H]2c2ccc(Cl)cc2)cc1` is 1200 µM; for `c1ccc(COCCOCc2ccc([C@H]3CCNC[C@@H]3OCc3ccc4ccccc4c3)cc2)cc1` (racemic) it is 0.091 µM.
The same measure, in the same setting: then `O=C(CCCOc1ccc([C@H]2CCNC[C@@H]2OCc2ccc3ccccc3c2)cc1)c1ccccc1` (racemic), with 0.22 µM; and `c1cncc(-c2noc(COc3ccc([C@H]4CCNC[C@@H]4OCc4ccc5ccccc5c4)cc3)n2)c1` (racemic), with 0.88 µM.
In the case of `COc1cccc(C(=O)OCc2ccc([C@H]3CCNC[C@@H]3OCc3ccc4ccccc4c3)cc2)c1` (racemic), the IC50 turned out to be 0.087 µM.
On the same count and under the same terms, then `COc1ccccc1COCCCOc1ccc([C@H]2CCNC[C@@H]2OCc2cc(OC)c3ccccc3c2OC)cc1` (racemic), with 6e-05 µM.
Same read-out and setting: the figure for `O=S(=O)(NCc1ccc([C@H]2CCNC[C@@H]2OCc2ccc3ccccc3c2)cc1)c1ccccc1` (racemic) is 40 µM; for `O=C(OCc1ccc([C@H]2CCNC[C@@H]2OCc2ccc3ccccc3c2)cc1)c1ccccc1` (racemic) it is 0.055 µM; for `c1ccc(COCCCOc2ccc([C@H]3CCNC[C@@H]3OCc3ccc4ccccc4c3)cc2)cc1` (racemic) it is 0.008 µM.
Still for that read-out and setting: the figure for `c1ccc(COCCCOc2ccc([C@H]3CCNC[C@@H]3OCc3ccc4ccccc4c3)cc2)nc1` (racemic) is 0.21 µM.

As usually defined, the IC50 is the concentration at which inhibition is half-maximal.
